Data: patent publication US20230355646A1, “AUTOPHAGY ACTIVATOR” (Resonac Corporation, priority 2020, published 2023)

Tested on: human neuroblastoma (SH-SY5Y)
Assay: Apoptosis suppressing action caused by amyloid β in human neuroblastoma (Hoechst 33342 staining)
Type: cell-based
Method: The proportion of apoptotic cells in human neuroblastoma (SH-SY5Y; obtained from ATCC) in the presence of an autophagy activator was measured by the following test method to evaluate the apoptosis suppressing action of the autophagy activator.
In the following examples and comparative examples, tests were performed by adding amyloid β, which is known to induce cell death called apoptosis of nerve cells due to a decrease in autophagy, to each medium.
SH-SY5Y cells were prepared at a seeding density of 50000 cells/cm^2 and cultured for 24 hours in D-MEM medium/Ham's F-12 medium (manufactured by Sigma-Aldrich) to which 10% fetal bovine serum (manufactured by MP Biomedicals) was added. […]
Thereafter, an aqueous solution of 10 μM Hoechst 33342 (manufactured by Sigma-Aldrich) was added to each SH-SY5Y cell from which the medium was removed, and the cells were allowed to stand at room temperature (25° C.) for 10 minutes. After removing the solution, each SH-SY5Y cell was washed with phosphate buffer (PBS, manufactured by Wako Pure Chemical Industries, Ltd.), and with a fluorescence microscope, the number of cells showing strong apoptosis-like Hoechst fluorescence due to chromatin aggregation (Hoechst (+) cells) was counted. […]

## COc1ccc([C@@H]2CC(=O)c3c(O)cc(O[C@@H]4O[C@H](CO[C@@H]5O[C@@H](C)[C@H](O)[C@@H](O)[C@H]5O)[C@@H](O)[C@H](O)[C@H]4O)cc3O2)cc1O [Comparative Example 2, hesperidin]
SH-SY5Y cells with amyloid β, compared to DMSO and amyloid β of Comparative Example 7
  proportion of apoptotic cells (in words): decreased
SH-SY5Y cells, 30 μM amyloid β present, 10^−2% (V/V) methyl hesperidin or hesperidin, additional ingredient where in the example, 48 hours, relative value, Reference Example 4 = 1.00
  Proportion of apoptotic cells: 3.76
